Entries after “also recorded” stand apart in the source; their conditions may differ.
Assays:
PC3 cells [1] = experiment: Cell invasion across Matrigel-coated filter; type: cell-based; conditions: for Effect on PC3 cell invasion (cells moved across Matrigel-coated filter): butaprost 1 μM
Source text: (§1) PGE2/EP2 signaling has been recognized to play important roles in mediating tumor progression and tumor-associated angiogenesis.

[2] = system: iNOS, COX-2, IL-1β and IL-6 expression; experiment: qRT-PCR of inflammatory mediators in microglia-enriched cultures; type: cell-based, rat
Source text: Nitric oxide (NO) synthesized by iNOS and prostaglandins produced by COX-2 are effectors of neurotoxicity and neuroinflammation, thus, these two inducible enzymes have been recognized as inflammatory mediators produced in activated microglia. As the dominant enzymatic product of COX-2, PGE2 therefore might play a role in microglia-mediated neuroinflammation and neurodegeneration.

PC3 cells [3] = experiment: MTT cell proliferation assay, butaprost-promoted growth; type: cell-based
Source text: as §1

[4] = system: rat microglia-enriched cultures; experiment: LDH release in microglia-enriched cultures; type: cell-based; conditions: 10 μM, overnight, basal
Protocol: Microglia are the initial and major mediators of neuroinflammation and neurodegeneration in various models of neurological disorders. EP2 receptor has been reported to regulate microglial activation and subsequent neurotoxicity in several animal models. The effects of EP2 activation in microglia were investigated. Rat microglia-enriched cultures were incubated with vehicle, butaprost, or compound A1 overnight. The cellular viability was evaluated by measuring Lactate dehydrogenase (LDH) release.

EP2 receptor [5] = biological target: T1, EP2 receptor (Homo sapiens, UniProt P43116); experiment: Butaprost-induced cAMP accumulation in PC3 cells; type: cell-based; design: PC3 cells express a substantially higher level of EP2 than DU145 and LNCap cells; endogenous in cells; host or cells: PC3 cells; conditions: concentration-dependent
Source text: as §1

[6] = system: rat primary hippocampal cultures; experiment: NMDA-induced LDH release (excitotoxicity) in primary hippocampal cultures; type: cell-based
Source text: Excitotoxicity caused by NMDA receptor activation is recognized to induce neuronal apoptosis both in vitro and in vivo in cortical neurons. NMDA receptor activation can, via COX-2, cause prostaglandin production, including PGE2. Activation of the EP2 receptor by PGE2 in microglia can promote neuroinflammation in several models of neurodegenerative diseases. The effect of EP2 antagonist compounds were examined on NMDA-induced excitotoxicity. Rat primary hippocampal cultures (DIV13-15) were preincubated with vehicle or increasing concentrations of test compound for 15-20 min, followed by treatment with NMDA (30 μM) plus glycine (10 μM) overnight in continued presence of the test compound. Lactate dehydrogenase (LDH) release was used as the measure of neuronal injury.

in vitro = conditions: rat
EP2 receptor [7] = biological target: T1, EP2 receptor; experiment: Schild regression of PGE2-induced EP2 activation in C6G-EP2 cells; type: cell-based; design: expressed in transfected cells; host or cells: C6G-EP2 cells
Protocol: Information on the modality of antagonism can be obtained by performing Schild regression analysis characterized by: log (dr−1)=log XB−log KB. In the equation, dose ratio (dr)=fold shift in EC50, XB=[antagonist], KB=equilibrium dissociation constant for the antagonist-receptor complex. […] Thus, a lower KB value indicates a higher inhibitory potency.
To perform the Schild regression, C6G-EP2 cells were incubated first with vehicle, 0.01, 0.1 or 1 μM of test compound for 5 minutes, then with increasing concentrations of PGE2 to activate the EP2 receptor.

T1 sequence (P43116 whole entry): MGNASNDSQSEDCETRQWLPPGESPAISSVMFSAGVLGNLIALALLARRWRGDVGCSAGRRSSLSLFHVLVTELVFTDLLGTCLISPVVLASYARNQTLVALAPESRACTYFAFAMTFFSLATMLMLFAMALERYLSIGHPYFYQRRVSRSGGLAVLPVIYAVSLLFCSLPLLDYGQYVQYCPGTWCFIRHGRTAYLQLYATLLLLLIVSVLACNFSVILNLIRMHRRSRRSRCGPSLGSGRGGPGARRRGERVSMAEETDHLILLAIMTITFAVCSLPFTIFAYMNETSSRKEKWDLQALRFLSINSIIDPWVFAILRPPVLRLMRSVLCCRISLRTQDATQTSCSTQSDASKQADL

With CCCC1([C@H](O)C/C=C/[C@H]2[C@H](O)CC(=O)[C@@H]2CCCCCCC(=O)OC)CCC1 [butaprost] the “Effect on PC3 cell invasion (cells moved across Matrigel-coated filter)” value (PC3 cells [1]) was “promoted cell invasion”, the “Effect on PC3 cell invasion (cells moved across Matrigel-coated filter)” value (PC3 cells [1]; listed as Butaprost) was “significantly increased” and the COX-2 expression increase ([2]; butaprost 1 μM, qRT-PCR) was 16.3 fold. For the same molecule, the IL-1β expression increase ([2]; butaprost 1 μM, qRT-PCR) was 1.8 fold, the IL-6 expression increase ([2]; butaprost 1 μM, qRT-PCR) was 11.1 fold and the iNOS expression increase ([2]; butaprost 1 μM, qRT-PCR) was 3.4 fold. For the same molecule, the Concentration giving maximal response of PC3 cell growth (PC3 cells [3]) was 1 µM, the “Effect of EP2 activation on PC3 cell growth” value (PC3 cells [3]) was “promoted PC3 cell growth” and the “LDH release compared to control” value [4] was 138%.

In the case of COc1cc(C=CC(=O)NCCn2c(C)cc3ccccc32)cc(OC)c1OC [A1, N-(2-(2-methyl-1H-indol-1-yl)ethyl)-3-(3,4,5-trimethoxyphenyl)acrylamide], the “Effect on PC3 cell invasion promoted by EP2 activation” value (PC3 cells [1]; cotreatment 1 μM with butaprost 1 μM) is reported as “inhibited; also recorded: blocked”, the “Effect on butaprost-induced upregulation of inflammatory mediators” value ([2]; 0.1-10 μM, concentration-dependent) is reported as “inhibited; also recorded: attenuated” and the “Inhibition of butaprost-induced EP2 receptor activation” value (EP2 receptor [5]) is reported as “robust competitive inhibition”. The activity at 0.01 µM ([6]; Rattus norvegicus, 0.01 μM compound, NMDA 30 μM plus glycine 10 μM overnight, read-out: NMDA-induced LDH release, % of control) was 94%, the activity at 0.1 µM ([6]; Rattus norvegicus, 0.1 μM compound, NMDA 30 μM plus glycine 10 μM overnight, read-out: NMDA-induced LDH release, % of control) was 87.8% and the activity at 1 µM ([6]; Rattus norvegicus, 1 μM compound, NMDA 30 μM plus glycine 10 μM overnight, read-out: NMDA-induced LDH release, % of control) was 73.9%. For the same molecule, the activity at 10 µM ([6]; Rattus norvegicus, 10 μM compound, NMDA 30 μM plus glycine 10 μM overnight, read-out: NMDA-induced LDH release, % of control) was 50.8%, the EC50 ([6]; rat hippocampal cultures, read-out: EC50 for the reduction of NMDA-induced LDH release) was 0.8 µM and the “Effect on butaprost-induced PC3 cell growth” value (PC3 cells [3]; concentration-dependent) was “attenuated”. The CC50 (in vitro) was 172 µM, the Schild plot slope (EP2 receptor [7]; C6G-EP2 cells, PGE2) was 1.0 and the “Modality of antagonism on EP2 receptor” value (EP2 receptor [7]; Schild plots) was “competitive antagonism”.

Reference: US10040783B2 (Emory University, priority 2011, dated 2018)
